Patent US20160279098A1, “NOVEL METHODS” (EUTHYMICS BIOSCIENCE, INC., priority 2013, published 2016)

Key:
Format in all cases: in vivo, human
[1] = test system: patients with major depressive disorder; assay: Vital signs (heart rate, blood pressure) in MDD trial; details: amitifadine 50 mg and 100 mg
From the text: (§1) A multicenter, randomized, double blind, placebo- and paroxetine-controlled trial of amitifadine for major depressive disorder (MDD) non-responsive to an adequate trial of an antidepressant therapy in the current depressive episode. A sequential parallel comparison design (SPCD) is utilized. […] The study is 12 weeks in duration, with two 6-week phases. The primary outcome measure is change on the Montgomery Asberg Depression Rating Scale (MADRS). Secondary outcomes include Hamilton Rating Scale for Depression (HAM-D), Clinical Global Impression of Improvement (CGI-I), Sexual Functioning Inventory (SFI), Clinical Global Impression (Improvement and Severity versions), and the Massachusetts General Hospital (MGH) Cognitive and Physical Functioning Questionnaire (MGH-CPFQ). […]
The primary efficacy assessment is the MADRS, administered at every study visit and clinicians complete it by using a structured interview guide developed by Massachusetts General Hospital (MGH). […] Vital signs are recorded at each visit; physical exam is performed at screen and week 12 (or early termination). […] Consumptive habits (smoking, alcohol, and caffeinated beverages) are recorded at every visit. […]

[2] = test system: patients with major depressive disorder; assay: Sexual Functioning Inventory (SFI) in placebo- and paroxetine-controlled MDD trial; design: scale not given here; details: LOCF
From the text: (§2) A sequential parallel comparison design (SPCD) is utilized. […] The study is 12 weeks in duration, with two 6-week phases. The primary outcome measure is change on the Montgomery Asberg Depression Rating Scale (MADRS). Secondary outcomes include Hamilton Rating Scale for Depression (HAM-D), Clinical Global Impression of Improvement (CGI-I), Sexual Functioning Inventory (SFI), Clinical Global Impression (Improvement and Severity versions), and the Massachusetts General Hospital (MGH) Cognitive and Physical Functioning Questionnaire (MGH-CPFQ). Male and female patients, between the ages of 18-65, are eligible who had MDD, based on the Structured Clinical Interview for DSM Disorders (SCID) interview, and validated by remote raters, a history of non-response to an adequate trial of an antidepressant during the current episode of MDD (an adequate dose for >8 weeks), and a HAM-D-17 score of >18 at screening.
(§3) In addition to standard inclusion criteria the trial requires: 1) diagnosis of MDD, based on the Structured Clinical Interview for DSM Disorders Clinical Trials version (SCID-CT), validated by remote independent raters using the SAFER criteria interview, 2) one and only one antidepressant therapy (ADT) failure in the current episode of MDD, treated with an adequate dose of one of an allowed standard antidepressant (paroxetine or an monoamine oxidase inhibitor (MAOI) not allowed) during the current episode for >6 weeks, with the same, adequate dose for >4 weeks, 3) HAM-D17≧18 at the end of screening phase, 4)<25% reduction in Quick Inventory of Depressive Symptoms Self-Rated (QIDS-SR) score between the screen and baseline visits. Inadequate response: defined as <50% reduction in depressive symptom severity, assessed by the MGH Antidepressant Treatment Response Questionnaire (ATRQ) administered by remote, independent raters (Targum, S. et al., CNS Neuroscience & Therapeutics, 2010, 16 (5), 322-325). An adequate trial is defined as an ADT>6 weeks at least at the minimum dose specified in the MGH ATRQ.
The SCID-CT is administered by study clinicians at the screening visit to diagnose Axis I disorders. The remote, independent raters also administer the SAFER Criteria Inventory (SCI) during the screening phase to assess whether the MDD is a “valid” clinical entity.
The primary efficacy assessment is the MADRS, administered at every study visit and clinicians complete it by using a structured interview guide developed by Massachusetts General Hospital (MGH). The primary tolerability assessment is the change in the SFI, completed by the patient at every study visit. The MGH-CPFQ, a brief self-report inventory to assess rates of significant cognitive symptoms, sleepiness and fatigue, is filled out by patients at every visit. The Columbia-Suicide Severity Rating Scale (C-SSRS) (Posner K. et al., American Journal of Psychiatry, 2011, 168 (12)1266-77) is administered at every visit. Vital signs are recorded at each visit; physical exam is performed at screen and week 12 (or early termination). Laboratory tests are obtained at screen, baseline, and weeks 2, 4, 6, 8, 10, 12 (or early termination). Twelve-lead ECGs are obtained at screen, baseline, and weeks 3, 6, 9, 12 (or early termination). Consumptive habits (smoking, alcohol, and caffeinated beverages) are recorded at every visit. Adverse events and concomitant medications are collected at every visit.

[3] = test system: patients with major depressive disorder; assay: as above; design: Mean Change from Baseline SFI, Item 3 / Mean Change from Baseline SFI, Item 4 / Mean Change from Baseline SFI, Item 5 / Mean Change from Baseline SFI Total / Mean Change from Baseline SFI, Item 1 / Mean Change from Baseline SFI, Item 2: scale not given here; details: amitifadine 100 mg
[4] = test system: patients with major depressive disorder; assay: Montgomery Asberg Depression Rating Scale (MADRS) in MDD trial
From the text: as §1
as §3, with “An adequate trial is defined as an ADT>6 weeks at least at the minimum dose specified in the MGH ATRQ.” left out
The primary efficacy assessment is the MADRS, administered at every study visit and clinicians complete it by using a structured interview guide developed by Massachusetts General Hospital (MGH). […] Vital signs are recorded at each visit; physical exam is performed at screen and week 12 (or early termination). […]

[5] = test system: patients with major depressive disorder; assay: Clinical Global Impression of Improvement (CGI-I) in MDD trial; details: amitifadine 50 mg or 100 mg; paroxetine 40 mg at both 6 and 12 weeks
From the text: as §2, with “A multicenter, randomized, double blind, placebo- and paroxetine-controlled trial of amitifadine for major depressive disorder (MDD) non-responsive to an adequate trial of an antidepressant therapy in the current depressive episode. A sequential” for “A sequential”, “at screening. […]” for “at screening.”

[6] = both genders, amitifadine 100 mg vs paroxetine 40 mg
[7] = female, amitifadine 100 mg, compare vs placebo
[8] = LOCF, female, compare vs placebo

SMILES: Clc1ccc([C@]23CNC[C@H]2C3)cc1Cl [Amitifadine]
- changes in heart rate or blood pressure [1]: Neither dose is associated with significant changes
- Mean Change from Baseline SFI Total [2, 6]: −3.86
- Mean Change from Baseline SFI, Item 1 [2, 6]: −1.02
- Mean Change from Baseline SFI, Item 2 [2, 6]: −1.00
- Mean Change from Baseline SFI, Item 3 [2, 6]: −0.80
- Mean Change from Baseline SFI, Item 4 [2, 6]: −0.79
- Mean Change from Baseline SFI, Item 5 [2, 6]: −1.00
- Mean Change from Baseline SFI, Item 2 [2, 7]: −1.12
- Mean Change from Baseline SFI, Item 5 [2, 7]: −1.09
- Mean Change from Baseline SFI Total [3, 8]: −4.41
- Mean Change from Baseline SFI, Item 1 [3, 8]: −1.16
- Mean Change from Baseline SFI, Item 3 [3, 8]: −0.97
- Mean Change from Baseline SFI Total ([3]; LOCF, male, compare vs placebo): −3.12
- Mean Change from Baseline SFI, Item 1 ([3]; LOCF, male, compare vs placebo): −0.83
- Mean Change from Baseline SFI, Item 2 ([3]; LOCF, male, compare vs placebo): −0.83
- Mean Change from Baseline SFI, Item 3 ([3]; LOCF, male, compare vs placebo): −0.58
- Mean Change from Baseline SFI, Item 4 ([3]; LOCF, male, compare vs placebo): −0.79
- Mean Change from Baseline SFI, Item 5 ([3]; LOCF, male, compare vs placebo): −0.88
- individual items of the SFI (anorgasmia, arousal, overall satisfaction) versus paroxetine ([3]; most individual items): significantly less impairing
- SFI change from baseline compared with placebo in women ([3]; post-hoc analyses by gender, women): significant improvement
- difference between paroxetine and amitifadine 100 mg in improvement ([4]; exploratory analyses): non-significant
- MADRS change from baseline compared to placebo ([4]; primary analysis, amitifadine 50 mg or 100 mg, paroxetine 40 mg): no significant difference
- CGI-Improvement compared to placebo [5]: no significant differences

SMILES: Fc1ccc([C@@H]2CCNC[C@H]2COc2ccc3c(c2)OCO3)cc1 [Paroxetine, reference compound]
- Mean Change from Baseline SFI Total [2, 6]: −1.52
- Mean Change from Baseline SFI, Item 1 [2, 6]: −0.57
- Mean Change from Baseline SFI, Item 2 [2, 6]: −0.45
- Mean Change from Baseline SFI, Item 3 [2, 6]: −0.27
- Mean Change from Baseline SFI, Item 4 [2, 6]: −0.13
- Mean Change from Baseline SFI, Item 5 [2, 6]: −0.23
- improvement compared to both placebo and amitifadine 50 mg ([4]; exploratory analyses, paroxetine 40 mg): significantly better improvement
- CGI-Improvement compared to placebo [5]: significant difference
